Where two headings read alike, the source gives them in different places. Where only a bound is given, the exact number is not on record here.

One test addresses human TLR7 (Homo sapiens (Human), UniProt Q9NYK1). In words: TLR7 inhibition reporter assay (HEK-Blue cells, SEAP reporter, gardiquimod stimulation). It counts as cell-based. On the technique in general: In a reporter assay the amount or activity of a reporter protein is the signal.
For the next test, the target named is human TLR8 (Homo sapiens (Human), UniProt Q9NR97). In words: TLR8 inhibition reporter assay (HEK-Blue cells, SEAP reporter, R848 stimulation).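 Note: compounds tested from 0.05 nM to 50 µM, 22 h at 37 °C, SEAP measured with HEK-Blue Detection, inhibition relative to agonist plus DMSO versus a known inhibitor.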
human TLR8, sequence (Q9NR97 27-1041): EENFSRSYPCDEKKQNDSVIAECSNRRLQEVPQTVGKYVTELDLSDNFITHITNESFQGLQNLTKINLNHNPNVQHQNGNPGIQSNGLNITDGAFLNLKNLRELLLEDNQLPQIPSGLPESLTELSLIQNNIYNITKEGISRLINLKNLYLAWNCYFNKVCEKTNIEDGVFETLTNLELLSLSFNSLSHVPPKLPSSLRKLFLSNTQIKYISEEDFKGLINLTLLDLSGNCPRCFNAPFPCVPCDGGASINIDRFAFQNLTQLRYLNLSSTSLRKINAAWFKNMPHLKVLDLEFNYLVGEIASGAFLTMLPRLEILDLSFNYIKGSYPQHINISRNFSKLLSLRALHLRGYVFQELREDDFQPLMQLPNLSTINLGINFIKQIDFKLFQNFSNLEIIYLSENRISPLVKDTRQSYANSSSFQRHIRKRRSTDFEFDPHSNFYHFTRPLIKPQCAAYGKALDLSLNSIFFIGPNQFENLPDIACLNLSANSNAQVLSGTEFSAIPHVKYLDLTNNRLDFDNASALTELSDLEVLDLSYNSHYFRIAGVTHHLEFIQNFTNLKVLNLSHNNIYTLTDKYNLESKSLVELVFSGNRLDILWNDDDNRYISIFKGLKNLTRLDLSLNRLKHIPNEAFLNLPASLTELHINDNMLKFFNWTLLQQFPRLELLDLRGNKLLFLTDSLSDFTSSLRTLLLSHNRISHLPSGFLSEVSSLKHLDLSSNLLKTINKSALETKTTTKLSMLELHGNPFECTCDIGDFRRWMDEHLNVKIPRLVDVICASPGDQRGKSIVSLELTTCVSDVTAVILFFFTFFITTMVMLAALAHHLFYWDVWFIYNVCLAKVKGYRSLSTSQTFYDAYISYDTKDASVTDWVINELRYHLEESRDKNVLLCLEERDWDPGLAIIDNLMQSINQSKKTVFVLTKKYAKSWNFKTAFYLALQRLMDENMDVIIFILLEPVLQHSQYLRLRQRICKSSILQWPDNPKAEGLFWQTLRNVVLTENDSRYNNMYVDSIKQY
The next test concerns the target human TLR9 (Homo sapiens (Human), UniProt Q9NR96). In words: TLR9 inhibition reporter assay (HEK-Blue cells, SEAP reporter, ODN2006 stimulation).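 Note: compounds tested over 0.05 nM to 50 µM, 22 h incubation, inhibition taken as SEAP signal drop from agonist plus DMSO wells toward a known inhibitor control.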
[1] abbreviates: HEK-Blue cells overexpressing human TLR7, gardiquimod 7.5 μM.
Where [2] appears, read: read-out: TLR8 IC50, HEK-Blue cells overexpressing human TLR8, R848 15.9 μM.
Setting [3] is: read-out: TLR9 IC50, HEK-Blue cells overexpressing human TLR9, ODN2006 5 nM.
The mark [4] stands for this setting: TLR8 IC50, HEK-Blue cells overexpressing human TLR8, R848 15.9 μM.
Where [5] appears, read: TLR9 IC50, HEK-Blue cells overexpressing human TLR9, ODN2006 5 nM.

human TLR7, sequence (Q9NYK1 27-1049): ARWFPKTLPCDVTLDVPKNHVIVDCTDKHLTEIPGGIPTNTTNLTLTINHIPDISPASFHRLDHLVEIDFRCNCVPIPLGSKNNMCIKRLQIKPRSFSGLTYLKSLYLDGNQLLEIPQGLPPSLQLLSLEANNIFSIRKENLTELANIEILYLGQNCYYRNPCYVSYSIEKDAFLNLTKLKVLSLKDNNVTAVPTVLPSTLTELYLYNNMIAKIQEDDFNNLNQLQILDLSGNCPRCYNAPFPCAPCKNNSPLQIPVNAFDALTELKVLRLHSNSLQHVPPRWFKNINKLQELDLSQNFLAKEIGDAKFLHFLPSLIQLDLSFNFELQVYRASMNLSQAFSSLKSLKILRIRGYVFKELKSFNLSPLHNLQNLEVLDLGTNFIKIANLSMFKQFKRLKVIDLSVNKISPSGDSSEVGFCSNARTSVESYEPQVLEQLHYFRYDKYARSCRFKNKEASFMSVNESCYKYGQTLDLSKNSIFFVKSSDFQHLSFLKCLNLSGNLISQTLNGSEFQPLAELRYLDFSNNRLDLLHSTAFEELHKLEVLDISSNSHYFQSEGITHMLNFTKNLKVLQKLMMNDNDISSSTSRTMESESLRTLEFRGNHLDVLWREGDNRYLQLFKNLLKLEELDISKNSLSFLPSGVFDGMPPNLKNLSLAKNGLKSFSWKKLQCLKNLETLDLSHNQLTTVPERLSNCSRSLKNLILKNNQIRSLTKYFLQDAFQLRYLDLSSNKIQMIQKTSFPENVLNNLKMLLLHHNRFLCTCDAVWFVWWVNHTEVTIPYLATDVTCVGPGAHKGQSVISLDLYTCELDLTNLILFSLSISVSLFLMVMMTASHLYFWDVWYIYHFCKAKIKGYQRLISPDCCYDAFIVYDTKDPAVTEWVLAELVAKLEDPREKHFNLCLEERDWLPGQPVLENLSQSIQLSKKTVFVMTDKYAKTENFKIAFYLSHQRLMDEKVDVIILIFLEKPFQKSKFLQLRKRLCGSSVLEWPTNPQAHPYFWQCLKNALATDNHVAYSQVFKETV
human TLR9, sequence (Q9NR96 26-1032): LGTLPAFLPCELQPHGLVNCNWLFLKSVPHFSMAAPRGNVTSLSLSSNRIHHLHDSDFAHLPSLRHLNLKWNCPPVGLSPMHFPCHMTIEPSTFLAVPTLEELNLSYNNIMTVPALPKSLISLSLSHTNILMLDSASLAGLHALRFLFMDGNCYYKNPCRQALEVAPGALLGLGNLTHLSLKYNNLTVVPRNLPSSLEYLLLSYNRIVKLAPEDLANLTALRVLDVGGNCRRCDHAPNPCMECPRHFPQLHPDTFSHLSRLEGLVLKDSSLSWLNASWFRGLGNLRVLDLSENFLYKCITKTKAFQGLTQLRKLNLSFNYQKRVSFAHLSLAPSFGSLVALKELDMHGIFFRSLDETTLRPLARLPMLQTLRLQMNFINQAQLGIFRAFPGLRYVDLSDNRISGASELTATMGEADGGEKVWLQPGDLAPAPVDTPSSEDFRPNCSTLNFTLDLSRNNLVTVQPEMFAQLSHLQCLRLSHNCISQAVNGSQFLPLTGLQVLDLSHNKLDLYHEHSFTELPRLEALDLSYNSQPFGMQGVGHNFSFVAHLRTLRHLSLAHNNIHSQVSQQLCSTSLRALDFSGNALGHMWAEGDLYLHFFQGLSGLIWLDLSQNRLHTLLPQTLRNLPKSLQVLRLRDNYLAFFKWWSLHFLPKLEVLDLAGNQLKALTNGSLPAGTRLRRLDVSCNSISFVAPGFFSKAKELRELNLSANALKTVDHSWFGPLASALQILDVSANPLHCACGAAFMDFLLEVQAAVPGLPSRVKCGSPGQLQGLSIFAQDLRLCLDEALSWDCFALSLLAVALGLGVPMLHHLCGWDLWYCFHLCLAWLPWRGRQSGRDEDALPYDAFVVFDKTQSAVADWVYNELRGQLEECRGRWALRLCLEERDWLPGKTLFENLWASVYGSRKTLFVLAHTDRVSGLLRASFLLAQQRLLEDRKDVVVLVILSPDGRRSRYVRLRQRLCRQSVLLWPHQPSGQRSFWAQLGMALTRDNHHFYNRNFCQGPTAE

Turning to `COCCCN1CCC(c2ccc3[nH]c(-c4cc(C)nc(C)c4)c(C(C)C)c3c2)CC1` [Example 330, 2-(2,6-dimethylpyridin-4-yl)-3-isopropyl-5-(1-(3-methoxypropyl)piperidin-4-yl)-1H-indole], the IC50 on human TLR7 (setting [1]) was found to be 3.7 nM; on human TLR8 (setting [2]), 4.2 nM; on human TLR9 (setting [3]), 999 nM.
Consider `Cc1cc(-c2[nH]c3ccc(C4CCN(C(=O)CN5CCC(F)(F)C5)CC4)cc3c2C(C)C)cc(C)n1` [Example 341, 2-(3,3-difluoropyrrolidin-1-yl)-1-(4-(2-(2,6-dimethylpyridin-4-yl)-3-isopropyl-1H-indol-5-yl)piperidin-1-yl)ethan-1-one], for which the IC50 worked out at 22.7 nM at human TLR7 (setting [1]), 211 nM at human TLR8 (setting [2]) and 25400 nM at human TLR9 (setting [3]).
On to `Cc1cc(-c2[nH]c3ccc(C4CCN(C5CCCOC5)CC4)cc3c2C(C)C)cc(C)n1` (stereo not drawn) [Example 457, 2-(2,6-dimethylpyridin-4-yl)-3-isopropyl-5-(1-(tetrahydro-2H-pyran-3-yl)piperidin-4-yl)-1H-indole], for which the IC50 against human TLR7 (setting [1]) came out at 2.7 nM; at human TLR8 (setting [2]), 8.7 nM; at human TLR9 (setting [3]), 274 nM.
As for `Cc1cc(-c2[nH]c3ccc(C4CCN(C(=O)CN(C)C5CCOC5)CC4)cc3c2C(C)C)cc(C)n1` (stereo not drawn) [Example 413, 1-(4-(2-(2,6-dimethylpyridin-4-yl)-3-isopropyl-1H-indol-5-yl)piperidin-1-yl)-2-(methyl(tetrahydrofuran-3-yl)amino)ethan-1-one], the IC50 came to 9.6 nM on human TLR7 (setting [1]), 91.8 nM at human TLR8 (setting [2]) and 2500 nM at human TLR9 (setting [3]).
In the case of `Cc1cc(-c2[nH]c3ccc(C4CCN(C(=O)C5CCCO5)CC4)cc3c2C(C)C)cc(C)n1` (stereo not drawn) [Example 103, (4-(2-(2,6-dimethylpyridin-4-yl)-3-isopropyl-1H-indol-5-yl)piperidin-1-yl)(tetrahydrofuran-2-yl)methanone], the IC50 against human TLR7 (setting [1]) was determined as 8.6 nM; at human TLR8 (setting [2]) it was 80.8 nM; at human TLR9 (setting [3]), 27700 nM.
The like results for `Cc1cc(-c2[nH]c3ccc(C4CCN(C(=O)CCN(C)C)CC4)cc3c2C(C)C)cc(C)n1` [Example 97, 3-(dimethylamino)-1-(4-(2-(2,6-dimethylpyridin-4-yl)-3-isopropyl-1H-indol-5-yl)piperidin-1-yl)propan-1-one] were, in that order, 1.3 nM, 5.9 nM and 399 nM.
The corresponding values for `Cc1cnc(F)cc1-c1[nH]c2ccc(C3CCNCC3)cc2c1C(C)C` [Example 28, 2-(2-fluoro-5-methylpyridin-4-yl)-3-isopropyl-5-(piperidin-4-yl)-1H-indole] are 7.2 nM, 33.9 nM and 3430 nM.
For `Cc1cc(-c2[nH]c3ccc(C4CCN(C5CC(C)OC(C)C5)CC4)cc3c2C(C)C)ccn1` (stereo not drawn) [Example 712, 5-(1-(2,6-dimethyltetrahydro-2H-pyran-4-yl)piperidin-4-yl)-3-isopropyl-2-(2-methylpyridin-4-yl)-1H-indole], the IC50 on human TLR7 (setting [1]) is 36.8 nM; at human TLR8 (setting [2]), 16.4 nM; on human TLR9 (setting [3]), 1190 nM.
On to `Cc1cc(-c2[nH]c3ccc(C4CCN(C(=O)CCNS(=O)(=O)c5ccccc5)CC4)cc3c2C(C)C)cc(C)n1` [Example 120, N-(3-(4-(2-(2,6-dimethylpyridin-4-yl)-3-isopropyl-1H-indol-5-yl)piperidin-1-yl)-3-oxopropyl)benzenesulfonamide], for which the IC50 is 12.5 nM on human TLR7 (setting [1]), 158 nM at human TLR8 (setting [2]) and 16200 nM at human TLR9 (setting [3]).
The like results for `CC(C)c1c(-c2ccncc2)[nH]c2ccc(C3CCN(C4CCN(C)CC4)CC3)cc12` [Example 525, 3-isopropyl-5-(1′-methyl-[1,4′-bipiperidin]-4-yl)-2-(pyridin-4-yl)-1H-indole] were, in that order, 44.3 nM, 6 nM and 190 nM.
The like results for `CCOCCNCC(=O)N1CCC(c2ccc3[nH]c(-c4cc(C)nc(C)c4)c(C(C)C)c3c2)CC1` [Example 349, 1-(4-(2-(2,6-dimethylpyridin-4-yl)-3-isopropyl-1H-indol-5-yl)piperidin-1-yl)-2-((2-ethoxyethyl)amino)ethan-1-one] were, in that order, 5.2 nM, 21.9 nM and 1360 nM.
Turning to `Cc1cc(-c2[nH]c3ccc(C4CCN(C(=O)C5CC(=O)N(C)C5)CC4)cc3c2C(C)C)cc(C)n1` (stereo not drawn) [Example 102, 4-(4-(2-(2,6-dimethylpyridin-4-yl)-3-isopropyl-1H-indol-5-yl)piperidine-1-carbonyl)-1-methylpyrrolidin-2-one], the IC50 against human TLR7 (setting [1]) was 7.5 nM; against human TLR8 (setting [4]), 72.6 nM; against human TLR9 (setting [5]) it was 36200 nM.
Regarding `Cc1cc(-c2[nH]c3ccc(C4CCN(C(=O)CN(C)Cc5ncn(C)n5)CC4)cc3c2C(C)C)cc(C)n1` [Example 419, 1-(4-(2-(2,6-dimethylpyridin-4-yl)-3-isopropyl-1H-indol-5-yl)piperidin-1-yl)-2-(methyl((1-methyl-1H-1,2,4-triazol-3-yl)methyl)amino)ethan-1-one], the IC50 against human TLR7 (setting [1]) came to 10.7 nM; on human TLR8 (setting [2]) it was 117 nM; on human TLR9 (setting [3]), 45500 nM.
Take `Cc1cc(-c2[nH]c3ccc(C4CCN(Cc5c[nH]c(C)n5)CC4)cc3c2CC(F)F)cc(C)n1` [Example 538, 3-(2,2-difluoroethyl)-2-(2,6-dimethylpyridin-4-yl)-5-(1-((2-methyl-1H-imidazol-4-yl)methyl)piperidin-4-yl)-1H-indole]: the values for the IC50 against human TLR7 (setting [1]), on human TLR8 (setting [2]) and on human TLR9 (setting [3]) were 39.6 nM, 34.6 nM and 69 nM, respectively.
Take `CCc1c(-c2cc(Cl)ncc2OC)[nH]c2ccc(C3CCN(C4CCN(CC(C)C)CC4)CC3)cc12` [Example 763, 2-(2-chloro-5-methoxypyridin-4-yl)-3-ethyl-5-(1′-isobutyl-[1,4′-bipiperidin]-4-yl)-1H-indole]: the IC50 against human TLR7 (setting [1]) came out at 4950 nM; at human TLR8 (setting [2]) it was 514 nM; on human TLR9 (setting [3]), 1900 nM.
Take `Cc1cc(-c2[nH]c3ccc(C4CCN(C(=O)c5cnn(C)c5)CC4)cc3c2C(C)C)cc(C)n1` [Example 132, (4-(2-(2,6-dimethylpyridin-4-yl)-3-isopropyl-1H-indol-5-yl)piperidin-1-yl)(1-methyl-1H-pyrazol-4-yl)methanone]: the values for the half-maximal inhibitory concentration (IC50) against human TLR7 (setting [1]), on human TLR8 (setting [2]) and at human TLR9 (setting [3]) were 4.2 nM, 90.8 nM and 46900 nM, respectively.
In the case of `CCOCCNC(=O)CN1CCC(c2ccc3[nH]c(-c4cc(C)nc(C)c4)c(C(C)C)c3c2)CC1` [Example 240, 2-(4-(2-(2,6-dimethylpyridin-4-yl)-3-isopropyl-1H-indol-5-yl)piperidin-1-yl)-N-(2-ethoxyethyl)acetamide], the 50% inhibitory concentration (IC50) turned out to be 8.3 nM at human TLR7 (setting [1]), 7.9 nM against human TLR8 (setting [4]) and 1090 nM against human TLR9 (setting [5]).
On to `CC(C)c1c(-c2ccnc(C#N)c2C(F)(F)F)[nH]c2ccc(C3CCNCC3)cc12` [Example 33, 4-(3-isopropyl-5-(piperidin-4-yl)-1H-indol-2-yl)-3-(trifluoromethyl)picolinonitrile], for which the IC50 against human TLR7 (setting [1]) stood at 2070 nM; on human TLR8 (setting [2]) it was 230 nM; at human TLR9 (setting [3]), 5650 nM.
The corresponding values for `Cc1cc(-c2[nH]c3ccc(C4CCN(S(=O)(=O)CC(C)C)CC4)cc3c2C(C)C)ccn1` [Example 548, 5-(1-(isobutylsulfonyl)piperidin-4-yl)-3-isopropyl-2-(2-methylpyridin-4-yl)-1H-indole] are 336 nM, 700 nM and more than 50000 nM.
Regarding `CCc1c(-c2cc(C)nc(C)c2)[nH]c2ccc(C3CCN(CC(=O)NC)CC3)cc12` [Example 527, 2-(4-(2-(2,6-dimethylpyridin-4-yl)-3-ethyl-1H-indol-5-yl)piperidin-1-yl)-N-methylacetamide], the IC50 on human TLR7 (setting [1]) came out at 54.1 nM; at human TLR8 (setting [2]), 63.6 nM; at human TLR9 (setting [3]), 608 nM.
As for `Cc1cc(-c2[nH]c3ccc(C4CCN(C(=O)CCn5nc(C)cc5C)CC4)cc3c2C(C)C)cc(C)n1` [Example 125, 3-(3,5-dimethyl-1H-pyrazol-1-yl)-1-(4-(2-(2,6-dimethylpyridin-4-yl)-3-isopropyl-1H-indol-5-yl)piperidin-1-yl)propan-1-one], the values for the IC50 against human TLR7 (setting [1]), on human TLR8 (setting [2]) and at human TLR9 (setting [3]) were 47.4 nM, 224 nM and 45600 nM, respectively.
On to `Cc1cc(-c2[nH]c3ccc(C4CCN(C=O)CC4)cc3c2C(C)C)cc(C)n1` [Example 862, 4-(2-(2,6-dimethylpyridin-4-yl)-3-isopropyl-1H-indol-5-yl)piperidine-1-carbaldehyde], for which the IC50 was 5.1 nM against human TLR7 (HEK-Blue cells, gardiquimod 7.5 μM); 120 nM on human TLR8 (read-out: TLR8 IC50, HEK-Blue cells, R848 15.9 μM); more than 50000 nM on human TLR9 (read-out: TLR9 IC50, HEK-Blue cells, ODN2006 5 nM).
As to `Cc1cc(-c2[nH]c3ccc(C4CCN(C(=O)CN(C)C5CCCCC5)CC4)cc3c2C(C)C)cc(C)n1` [Example 384, 2-(cyclohexyl (methyl)amino)-1-(4-(2-(2,6-dimethylpyridin-4-yl)-3-isopropyl-1H-indol-5-yl)piperidin-1-yl)ethan-1-one], the IC50 against human TLR7 (setting [1]) came out at 14.4 nM; at human TLR8 (setting [2]), 57 nM; on human TLR9 (setting [3]), 630 nM.
As for `CCc1c(-c2ccnc(N)c2)[nH]c2ccc([C@@H]3CCNC[C@H]3F)cc12` [491-B], the IC50 against human TLR7 (setting [1]) turned out to be 526 nM; at human TLR8 (setting [2]), 34.9 nM; on human TLR9 (setting [3]), 324 nM.
Take `Cc1cc(-c2[nH]c3ccc(C4CCN(CC5CCN(C(C)C)CC5)CC4)cc3c2C(C)C)ccn1` [Example 742, 3-isopropyl-5-(1-((1-isopropylpiperidin-4-yl)methyl)piperidin-4-yl)-2-(2-methylpyridin-4-yl)-1H-indole]: the half-inhibitory concentration (IC50) against human TLR7 (setting [1]) is 9.2 nM; at human TLR8 (setting [2]), 5.5 nM; at human TLR9 (setting [3]), 101 nM.

In general, IC50 refers to the point on the concentration scale where inhibition reaches its midpoint.
